Experimental findings from publication PMC4546622, “Structure of the Glycosyltransferase Ktr4p from Saccharomyces cerevisiae” (PLoS ONE, 2015) are described below.

The target of series [1] is T1, Ktr4p (Saccharomyces cerevisiae, UniProt P38131).
T1 construct: gene KTR4; lumenal domain (stalk plus catalytic), residues Asn-33 to Tyr-464; N-terminal His6 tag cut off with TEV protease; E. coli Rosetta-gami 2 (DE3); monomer fraction from SEC
T1 sequence (P38131 33-464): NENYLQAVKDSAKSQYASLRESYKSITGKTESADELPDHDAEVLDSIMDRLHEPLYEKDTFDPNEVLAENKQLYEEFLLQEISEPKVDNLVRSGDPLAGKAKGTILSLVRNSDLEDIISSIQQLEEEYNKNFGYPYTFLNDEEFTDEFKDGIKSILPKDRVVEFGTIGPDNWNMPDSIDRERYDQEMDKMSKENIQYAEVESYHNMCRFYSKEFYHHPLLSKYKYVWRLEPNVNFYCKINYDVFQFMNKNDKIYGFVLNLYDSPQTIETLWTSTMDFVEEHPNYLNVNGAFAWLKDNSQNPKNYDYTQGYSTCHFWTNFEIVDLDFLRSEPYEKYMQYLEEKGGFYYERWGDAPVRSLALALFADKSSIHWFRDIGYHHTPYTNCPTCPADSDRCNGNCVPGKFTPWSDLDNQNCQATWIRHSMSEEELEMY
In words: coupled phosphatase (ENTPD3/CD39L3) malachite green assay. It counts as biochemical. The following applies: 10 μM enzyme, 10 mM MnCl2, 10 mM CaCl2, pH 7.5, 20°C.

Series [2] addresses T1, Ktr4p. In words: X-ray crystal structure, […] Å. The series is classed as binding. The following applies: with Mn2+ in the active site; 5 mM GDP and 5 mM MnCl2; pH 6.5; 4°C.
Series [3] concerns the molecule itself. In words: SEC; Superdex 200 16/60, 10 mM HEPES pH 7.4, 150 mM NaCl; final purification step; monomer and dimer peaks at a ratio of ~2:1, monomer peak the largest.

As to `Nc1nc2c(ncn2[C@@H]2O[C@H](COP(=O)(O)OP(=O)(O)O[C@H]3O[C@H](CO)[C@@H](O)[C@H](O)[C@@H]3O)[C@@H](O)[C@H]2O)c(=O)[nH]1` [GDP-mannose], the “coupled phosphatase (ENTPD3/CD39L3) malachite green assay” value in series [1] (sugar donor, 50 μM, 500 μM acceptor) was “GDP-mannose is a suitable sugar donor”.

For the molecule `Nc1nc2c(ncn2[C@@H]2O[C@H](COP(=O)(O)OP(=O)(O)O)[C@@H](O)[C@H]2O)c(=O)[nH]1` [GDP], the “X-ray crystal structure, 1.9 Å” value in series [2] is 5a08 for the apo structure and 5a07 for the GDP-complex structure.

With `CO[C@H]1O[C@H](CO)[C@@H](O)[C@H](O)[C@@H]1O` [methyl-α-mannoside], the “coupled phosphatase (ENTPD3/CD39L3) malachite green assay” value in series [1] (sugar acceptor, 500 μM, 50 μM GDP-mannose) was “we observe the most efficient activity with methyl-α-mannoside”.

B1: Ktr4p lumenal domain (residues Asn-33 to Tyr-464; stalk domain and catalytic domain) (domain or fragment, S. cerevisiae, UniProt P38131 33-464, looked up)
chain: T1 sequence (P38131 33-464)
notes: Cloned in pNIC28-Bsa4 with a His6 tag and a TEV site N-terminal of the construct; the tag was removed with TEV protease; A few residues of the vector probably remain at the N-terminus after cleavage (surmised from the forward primer); Residues 33-69/70 are not visible in the structures; source: E. coli Rosetta-gami 2 (DE3), purified (Ni-NTA IMAC, TEV cleavage, second IMAC pass, Superdex 200 SEC); …
As to B1, the stoichiometry N (in general, the number of molecules, sites or subunits per partner or assembly) in series [3] is 2.
